Test results from paper PMC4836378 (Journal of medicinal chemistry, 2016).
Like-named read-outs stand apart in the source and are kept apart here.

Tests used:
CYP26A1 = target: T1, CYP26A1 (Homo sapiens, UniProt O43174); assay: CYP26A1 inhibition assay; details: for Selectivity towards CYP26A1 compared to CYP26B1 (ratio of IC50): CYP26B1 IC50 versus CYP26A1 IC50
T1 sequence (O43174 1-497): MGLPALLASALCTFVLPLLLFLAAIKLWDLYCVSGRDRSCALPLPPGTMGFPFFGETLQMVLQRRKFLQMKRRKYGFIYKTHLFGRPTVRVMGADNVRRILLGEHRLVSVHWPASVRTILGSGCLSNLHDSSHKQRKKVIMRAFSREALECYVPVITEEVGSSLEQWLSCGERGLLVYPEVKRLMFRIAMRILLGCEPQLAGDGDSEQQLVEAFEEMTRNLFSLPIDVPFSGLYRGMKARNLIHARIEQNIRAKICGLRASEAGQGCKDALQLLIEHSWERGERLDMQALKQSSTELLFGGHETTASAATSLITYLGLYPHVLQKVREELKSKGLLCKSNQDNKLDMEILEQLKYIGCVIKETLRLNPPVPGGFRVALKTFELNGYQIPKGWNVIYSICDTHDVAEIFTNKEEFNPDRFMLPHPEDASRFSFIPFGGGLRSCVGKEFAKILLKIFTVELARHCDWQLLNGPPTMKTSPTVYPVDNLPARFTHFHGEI

CYP26B1 = target: T2, CYP26B1 (Homo sapiens, UniProt Q9NR63); assay: CYP26B1 inhibition assay
T2 sequence (Q9NR63 1-512): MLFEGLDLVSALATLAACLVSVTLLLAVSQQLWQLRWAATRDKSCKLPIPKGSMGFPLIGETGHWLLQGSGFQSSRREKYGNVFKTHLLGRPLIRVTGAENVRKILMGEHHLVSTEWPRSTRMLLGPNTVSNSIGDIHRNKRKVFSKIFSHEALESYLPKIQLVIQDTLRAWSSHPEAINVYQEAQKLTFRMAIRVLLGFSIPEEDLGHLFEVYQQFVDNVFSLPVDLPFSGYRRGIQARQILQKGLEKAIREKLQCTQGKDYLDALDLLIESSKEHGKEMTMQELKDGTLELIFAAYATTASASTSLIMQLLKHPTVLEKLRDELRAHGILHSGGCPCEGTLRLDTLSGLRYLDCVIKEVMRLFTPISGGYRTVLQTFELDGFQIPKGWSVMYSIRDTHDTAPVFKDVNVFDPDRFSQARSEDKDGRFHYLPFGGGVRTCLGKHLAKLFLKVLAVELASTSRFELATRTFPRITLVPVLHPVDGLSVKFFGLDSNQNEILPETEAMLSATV

human RARα = target: T3, human RARα (Homo sapiens, UniProt P10276); assay: Luciferase-based RARα reporter assay; format: cell-based; details: 1 μM compound, data not shown
T3 sequence (P10276 1-462): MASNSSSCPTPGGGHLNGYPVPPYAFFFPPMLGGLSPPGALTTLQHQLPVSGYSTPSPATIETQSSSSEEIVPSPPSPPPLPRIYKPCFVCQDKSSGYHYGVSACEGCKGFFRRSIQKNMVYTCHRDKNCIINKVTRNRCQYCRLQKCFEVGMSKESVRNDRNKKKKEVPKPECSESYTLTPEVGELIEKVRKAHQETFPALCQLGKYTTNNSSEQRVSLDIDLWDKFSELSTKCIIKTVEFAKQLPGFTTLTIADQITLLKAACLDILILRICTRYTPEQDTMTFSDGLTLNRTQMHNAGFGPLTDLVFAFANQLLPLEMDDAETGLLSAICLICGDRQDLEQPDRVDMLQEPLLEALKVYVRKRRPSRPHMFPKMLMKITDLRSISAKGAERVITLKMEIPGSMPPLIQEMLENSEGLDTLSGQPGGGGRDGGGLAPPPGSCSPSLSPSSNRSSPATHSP

human RARγ = target: T4, human RARγ (Homo sapiens, UniProt P13631); assay: Luciferase-based RARγ reporter assay; format: cell-based; details: 1 μM compound, data not shown
T4 sequence (P13631 1-454): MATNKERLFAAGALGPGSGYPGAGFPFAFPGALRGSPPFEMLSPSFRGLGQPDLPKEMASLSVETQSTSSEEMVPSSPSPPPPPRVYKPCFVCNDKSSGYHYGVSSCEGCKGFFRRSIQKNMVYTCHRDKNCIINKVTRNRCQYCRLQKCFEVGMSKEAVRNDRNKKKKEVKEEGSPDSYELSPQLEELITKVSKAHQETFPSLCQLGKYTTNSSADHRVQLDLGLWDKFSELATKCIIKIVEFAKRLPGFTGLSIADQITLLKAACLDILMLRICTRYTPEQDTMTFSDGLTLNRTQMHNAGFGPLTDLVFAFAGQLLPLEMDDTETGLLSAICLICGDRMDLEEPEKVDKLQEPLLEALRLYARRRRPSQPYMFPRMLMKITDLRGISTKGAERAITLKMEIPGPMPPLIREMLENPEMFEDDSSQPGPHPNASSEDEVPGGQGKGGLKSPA

RARs in HepG2 cells = assay: Induction of RARβ and CYP26A1 mRNA in HepG2 cells; format: cell-based, human; details: for RAR antagonistic activity: 100 nM atRA + 1 μM compound; for Magnitude of induction of RARβ and CYP26A1 mRNA compared to atRA treatment alone: 100 nM atRA in combination with 1 μM compound; for Activation of RARs (induction of CYP26A1 and RARβ mRNA): 1 μM compound alone, 24 hours, versus vehicle and atRA
CYP3A4 = CYP3A4 (Homo sapiens, UniProt P08684); assay: CYP3A4 inhibition in human liver microsomes; format: in vitro ADME; details: midazolam; for Percent inhibition of CYP3A4: 10 μM inhibitor, 10 µM
Sequence of CYP3A4 (P08684 whole entry): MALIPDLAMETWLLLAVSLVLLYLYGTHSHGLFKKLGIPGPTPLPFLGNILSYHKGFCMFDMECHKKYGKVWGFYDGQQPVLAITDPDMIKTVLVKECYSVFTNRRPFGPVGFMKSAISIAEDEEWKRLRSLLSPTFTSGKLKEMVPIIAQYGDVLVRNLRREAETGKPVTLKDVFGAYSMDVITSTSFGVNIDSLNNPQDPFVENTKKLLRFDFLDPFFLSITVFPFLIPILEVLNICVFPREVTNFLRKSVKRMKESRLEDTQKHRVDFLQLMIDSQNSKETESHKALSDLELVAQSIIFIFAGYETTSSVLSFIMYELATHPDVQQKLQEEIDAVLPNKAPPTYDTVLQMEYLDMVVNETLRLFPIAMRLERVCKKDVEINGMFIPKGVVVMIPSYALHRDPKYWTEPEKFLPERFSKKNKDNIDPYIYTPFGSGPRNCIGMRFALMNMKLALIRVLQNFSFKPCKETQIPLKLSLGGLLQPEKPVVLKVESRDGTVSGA

CYP2D6 = CYP2D6 (Homo sapiens, UniProt P10635); assay: CYP2D6 inhibition in human liver microsomes; format: in vitro ADME
Sequence of CYP2D6 (P10635 whole entry): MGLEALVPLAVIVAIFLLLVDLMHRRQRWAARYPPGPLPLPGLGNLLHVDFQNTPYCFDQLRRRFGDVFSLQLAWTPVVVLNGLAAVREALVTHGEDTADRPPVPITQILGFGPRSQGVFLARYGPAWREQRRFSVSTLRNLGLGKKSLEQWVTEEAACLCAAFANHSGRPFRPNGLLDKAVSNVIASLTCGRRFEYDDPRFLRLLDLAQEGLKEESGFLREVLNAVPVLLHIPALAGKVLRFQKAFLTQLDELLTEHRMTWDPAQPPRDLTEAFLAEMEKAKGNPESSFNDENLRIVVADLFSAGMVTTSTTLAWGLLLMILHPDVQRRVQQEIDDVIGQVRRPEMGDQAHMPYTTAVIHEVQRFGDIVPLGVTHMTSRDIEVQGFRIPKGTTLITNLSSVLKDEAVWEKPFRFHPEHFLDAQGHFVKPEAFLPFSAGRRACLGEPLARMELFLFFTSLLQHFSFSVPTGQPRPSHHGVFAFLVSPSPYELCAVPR

CYP2C19 = CYP2C19 (Homo sapiens, UniProt P33261); assay: CYP2C19 inhibition in human liver microsomes; format: in vitro ADME; details: 10 μM inhibitor, (S)-mephenytoin
Sequence of CYP2C19 (P33261 whole entry): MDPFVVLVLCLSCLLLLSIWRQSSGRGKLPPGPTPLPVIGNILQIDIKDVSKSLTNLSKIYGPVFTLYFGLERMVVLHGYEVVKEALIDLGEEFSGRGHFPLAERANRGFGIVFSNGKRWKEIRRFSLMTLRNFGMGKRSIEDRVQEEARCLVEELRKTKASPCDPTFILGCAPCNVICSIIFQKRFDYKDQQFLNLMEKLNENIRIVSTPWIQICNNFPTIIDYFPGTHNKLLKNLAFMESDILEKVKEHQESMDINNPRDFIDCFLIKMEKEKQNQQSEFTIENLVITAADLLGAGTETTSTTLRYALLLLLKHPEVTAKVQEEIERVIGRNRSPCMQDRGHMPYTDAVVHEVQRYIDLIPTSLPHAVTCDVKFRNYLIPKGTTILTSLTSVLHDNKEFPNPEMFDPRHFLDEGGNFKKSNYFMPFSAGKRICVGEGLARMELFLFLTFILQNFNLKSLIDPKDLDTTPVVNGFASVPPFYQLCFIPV

CYP2B6 = target: T5, CYP2B6 (Homo sapiens, UniProt P20813); assay: CYP2B6 inhibition in human liver microsomes; format: in vitro ADME; details: 10 μM inhibitor, bupropion
T5 sequence (P20813 1-491): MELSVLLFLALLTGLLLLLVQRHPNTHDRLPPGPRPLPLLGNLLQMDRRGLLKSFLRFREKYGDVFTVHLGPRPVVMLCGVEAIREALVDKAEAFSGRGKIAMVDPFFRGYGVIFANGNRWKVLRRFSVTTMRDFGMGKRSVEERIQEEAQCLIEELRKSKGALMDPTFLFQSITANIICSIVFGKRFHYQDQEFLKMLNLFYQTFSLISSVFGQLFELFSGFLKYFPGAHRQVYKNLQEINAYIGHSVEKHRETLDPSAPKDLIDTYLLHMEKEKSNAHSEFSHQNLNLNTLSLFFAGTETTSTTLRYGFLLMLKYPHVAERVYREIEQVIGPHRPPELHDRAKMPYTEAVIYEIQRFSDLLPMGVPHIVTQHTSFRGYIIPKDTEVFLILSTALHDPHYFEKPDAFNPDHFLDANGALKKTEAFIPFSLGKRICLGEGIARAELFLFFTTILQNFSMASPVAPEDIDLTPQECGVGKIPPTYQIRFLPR

[1] = system: atRA metabolism in HepG2 cells; details: HepG2, 24 hour treatment
[2] = substrate: CC1=C(/C=C/C(C)=C\C=C\C(C)=C\C(=O)O)C(C)(C)CCC1; assay: cells, lysate or membranes named; details: other: recombinant CYP26B1, 50-1000 nM 9-cis-RA; pH 7.4; 37.0 °C

CCC(CC)C(c1ccc(Nc2nc3ccccc3s2)cc1)n1cncn1 (stereo not shown) [Compound 3, talarozole]
Ki (CYP26A1): 5.1 nM
Ki (CYP26B1): 0.46 nM

CC1(C)CCC(C)(C)c2cc(C3(c4ccc5cc(C(=O)O)ccc5c4)OCCO3)ccc21 [Compound 13b, 6-(2-(5,5,8,8-Tetramethyl-5,6,7,8-tetrahydronaphthalen-2-yl)-1,3-dioxolan-2-yl)-2-naphthoic acid]
Selectivity towards CYP26A1 compared to CYP26B1 (ratio of IC50) (CYP26A1): 10–20 fold

CC1(C)CCC(C)(C)c2cc(C3(c4ccc5cc(C(=O)O)ccc5c4)SCCS3)ccc21 [Compound 15b, 6-(2-(5,5,8,8-Tetramethyl-5,6,7,8-tetrahydronaphthalen-2-yl)-1,3-dithiolan-2-yl)-2-naphthoic acid]
Selectivity towards CYP26A1 compared to CYP26B1 (ratio of IC50) (CYP26A1): 10–20 fold

CC1(C)CCC(C)(C)c2cc(C3(c4ccc(/C=C/C(=O)O)cc4)OCCO3)ccc21 [Compound 22, (E)-3-(4-(2-(5,5,8,8-Tetramethyl-5,6,7,8-tetrahydronaphthalen-2-yl)-1,3-dioxolan-2-yl)phenyl)-acrylic acid]
RARα activation (human RARα): No measurable RARα and RARγ activation was detected
RARγ activation (human RARγ): No measurable RARα and RARγ activation was detected
RAR antagonistic activity (RARs in HepG2 cells): do not exhibit an RAR antagonistic activity
Magnitude of induction of RARβ and CYP26A1 mRNA compared to atRA treatment alone (RARs in HepG2 cells): significantly increased
Activation of RARs (induction of CYP26A1 and RARβ mRNA) (RARs in HepG2 cells): none of the three compounds resulted in activation
Percent inhibition of CYP3A4 (CYP3A4): free of any CYP3A4 inhibition
inhibition at 10 µM (CYP2D6; human, probe dextromethorphan): 50%

CC1(C)CCC(C)(C)c2cc(C3(c4ccc(CCC(=O)O)cc4)OCCO3)ccc21 [Compound 24, 3-{4-[2-(5,5,8,8-Tetramethyl-5,6,7,8-tetrahydronaphthalen-2-yl)-1,3-dioxolan-2-yl]phenyl}4 propanoic acid]
RARα activation (human RARα): No measurable RARα and RARγ activation was detected
RARγ activation (human RARγ): No measurable RARα and RARγ activation was detected
RAR antagonistic activity (RARs in HepG2 cells): do not exhibit an RAR antagonistic activity
Magnitude of induction of RARβ and CYP26A1 mRNA compared to atRA treatment alone (RARs in HepG2 cells): significantly increased
Activation of RARs (induction of CYP26A1 and RARβ mRNA) (RARs in HepG2 cells): none of the three compounds resulted in activation
Percent inhibition of CYP3A4 (CYP3A4): free of any CYP3A4 inhibition
IC50 for CYP3A4 inhibition (CYP3A4): no concentration dependent inhibition
Percent inhibition of CYP2D6 (CYP2D6; 10 μM inhibitor, dextromethorphan, 10 µM): free of any significant inhibition
Percent inhibition of CYP2C19 (CYP2C19): free of any significant inhibition
Percent inhibition of CYP2B6 (CYP2B6): free of any significant inhibition

CC1=C(/C=C/C(C)=C/C=C/C(C)=C/C(=O)O)C(C)(C)CCC1 [atRA, all-trans-retinoic acid]
atRA in cell media ([1]; 100nM atRA alone): 13.2 ± 0.14 nM
atRA in cell media ([1]; 1μM atRA alone): 214 ± 13.6 nM

B1: CYP26B1 (Homo sapiens) (protein)
chain: T2 sequence (Q9NR63 1-512)
Km [2]: 555 nM
kcat [2]: 3.6 pmol/min/pmol P450
